In brackets after ≈: the same amount, converted by molar mass.
Key:
[1] = system: C. albicans (ATCC 90028); experiment: Minimum inhibitory concentration, in vitro broth microdilution assay (CLSI M27-A2); assay type: cell-based, Candida albicans; conditions: ATCC 90028, about 50% growth reduction, 2 days at 36° C., range tested 8-0.0078 μg/mL, values given as ranges; for MIC: Candida albicans, ATCC90028, 48 h, read-out: Candida albicans MIC
Procedure: The antifungal potency of the test compounds was measured using the in vitro broth microdilution assay under assay conditions described by the Clinical and Laboratory Standards Institute (CLSI M27-A2). The test compounds were dissolved in 100% DMSO, suspended completely by sonication or vortexing, diluted by 2-fold serial titrations in the same vehicle, for a total of 11 test concentrations. A 4 μL aliquot of each dilution was added to 196 μL of RPMI-1640+MOPS medium seeded with the C. albicans (ATCC 90028) suspension in wells of a 96 well plate (fungal cell count: 1×10^3 to 1×10^4 colony forming units per mL). The final volume was 200 μL in each well and the final DMSO concentration was 2 percent. The inoculated plates were incubated for 2 days at 36° C. Following incubation, the test plates were visually examined and wells were scored for growth to define the minimum inhibitory concentration. […] Each test substance was evaluated in duplicate. Vehicle-control and an active reference agent (e.g., posaconazole) were used as blank and positive controls, respectively.

[2] = system: A. fumigatus; experiment: A. fumigatus MIC at 100% growth inhibition (CLSI M38-A2); assay type: cell-based, Aspergillus fumigatus; conditions: 100% growth inhibition, range tested 8-0.0078 μg/mL, values given as ranges; for MIC: Aspergillus fumigatus, read-out: Aspergillus fumigatus MIC
Procedure: A. fumigatus MICs were determined at 100% growth inhibition following CLSI guidelines at a concentration range of 8-0.0078 μg/mL (CLSI M38-A2).

Row | Structure (SMILES) | Candida albicans MIC [1] [µg/mL] | Aspergillus fumigatus MIC [2] [µg/mL] | MIC [1] [µg/mL] | MIC [2] [µg/mL]
1 | OC(c1cn(-c2ccc(N3CCN(c4ccc(-c5ccc(C(F)(F)C(O)(Cn6cnnn6)c6ccccc6F)nc5)cc4)CC3)cn2)nn1)C(F)(F)F (single isomer, unassigned; (+)) [110(+), (+)-1,1-difluoro-2-(2-fluorophenyl)-3-(1H-tetrazol-1-yl)-1-(5-(4-(4-(6-(4-(2,2,2-trifluoro-1-hydroxyethyl)-1H-1,2,3-triazol-1-yl)pyridin-3-yl)piperazin-1-yl)phenyl)pyridin-2-yl) propan-2-ol] | ≤0.0078 to 0.010 | 0.25 to 1.0 | – | –
2 | OC(CC(F)(F)F)c1ccc(N2CCN(c3ccc(-c4ccc(C(F)(F)[C@](O)(Cn5cncn5)c5ccc(F)cc5F)nc4)cc3)CC2)cn1 (single isomer, unassigned; (+)) [120(+)] | ≤0.0078 to 0.010 | 0.062 to 0.25 | – | –
3 | OC(CC(F)(F)F)c1ccc(N2CCN(c3ccc(-c4ccc(C(F)(F)[C@](O)(Cn5cnnn5)c5ccc(F)cc5)nc4)cc3)CC2)cn1 (single isomer, unassigned; (+)) [121(+)] | ≤0.0078 to 0.010 | 0.25 to 1.0 | – | –
4 | OC(CC(F)(F)F)c1ccc(N2CCN(c3ccc(-c4ccc(C(F)(F)[C@](O)(Cn5cnnn5)c5ccccc5F)nc4)cc3)CC2)cn1 (single isomer, unassigned; (+)) [122(+)] | ≤0.0078 to 0.010 | 0.25 to 1.0 | – | –
5 | CC[C@@H]([C@H](C)O)n1ncn(-c2ccc(N3CCN(c4ccc(-c5ccc(C(F)(F)C(O)(Cn6cncn6)c6ccc(F)cc6F)nc5)cc4)CC3)cc2)c1=O (single isomer, unassigned; (+)) [123(+)] | 0.010 to 0.10 | 0.062 to 0.25 | – | –
6 | OC(c1cn(-c2ccc(N3CCN(c4ccc(-c5ccc(C(F)(F)C(O)(Cn6cnnn6)c6ccccc6F)nc5)cc4)CC3)cn2)nn1)C(F)(F)F (single isomer, unassigned; (-)) [110(−), (−)-1,1-difluoro-2-(2-fluorophenyl)-3-(1H-tetrazol-1-yl)-1-(5-(4-(4-(6-(4-(2,2,2-trifluoro-1-hydroxyethyl)-1H-1,2,3-triazol-1-yl)pyridin-3-1)piperazin-1-yl)phenyl)pyridin-2-yl) propan-2-ol] | >8 | >8 | – | –
7 | OC(CC(F)(F)F)c1ccc(N2CCN(c3ccc(-c4ccc(C(F)(F)[C@](O)(Cn5cnnn5)c5cccc(F)c5)nc4)cc3)CC2)cn1 (single isomer, unassigned; (-)) [119(−)] | – | – | 0.1 to 1 (≈ 0.146 to 1.46 µM) | > 8
8 | OC(CC(F)(F)F)c1ccc(N2CCN(c3ccc(-c4ccc(C(F)(F)[C@](O)(Cn5cncn5)c5ccc(F)cc5F)nc4)cc3)CC2)cn1 (single isomer, unassigned; (-)) [120(−)] | – | 0.25 to 1.0 | 0.01 to 0.1 (≈ 0.0143 to 0.143 µM) | –
9 | OC(CC(F)(F)F)c1ccc(N2CCN(c3ccc(-c4ccc(C(F)(F)[C@](O)(Cn5cnnn5)c5ccc(F)cc5)nc4)cc3)CC2)cn1 (single isomer, unassigned; (-)) [121(−)] | 0.10 to 1.0 | >8 | – | –
10 | OC(CC(F)(F)F)c1ccc(N2CCN(c3ccc(-c4ccc(C(F)(F)[C@](O)(Cn5cnnn5)c5ccccc5F)nc4)cc3)CC2)cn1 (single isomer, unassigned; (-)) [122(−)] | 1.0 to 8.0 | >8 | – | –
11 | CC[C@@H]([C@H](C)O)n1ncn(-c2ccc(N3CCN(c4ccc(-c5ccc(C(F)(F)C(O)(Cn6cncn6)c6ccc(F)cc6F)nc5)cc4)CC3)cc2)c1=O (single isomer, unassigned; (-)) [123(−)] | – | 0.25 to 1.0 | 0.01 to 0.1 (≈ 0.0132 to 0.132 µM) | –
12 | CC[C@@H]([C@H](C)O)n1ncn(-c2ccc(N3CCN(c4ccc(-c5ccc(C(F)(F)[C@](O)(Cn6cnnn6)c6ccccc6F)nc5)cc4)CC3)cn2)c1=O [102(+), 4-(5-(4-(4-(6-((R)-1,1-difluoro-2-(2-fluorophenyl)-2-hydroxy-3-(1H-tetrazol-1-yl)propyl)pyridin-3-yl)phenyl)piperazin-1-yl)pyridin-2-yl)-2-((2S,3S)-2-hydroxypentan-3-yl)-2,4-dihydro-3H-1,2,4-triazol-3-one] | ≤0.0078 to 0.010 | 0.25 to 1.0 | – | –
13 | CC[C@@H]([C@H](C)O)n1ncn(-c2ccc(N3CCN(c4ccc(-c5ccc(C(F)(F)[C@](O)(Cn6cnnn6)c6ccccc6F)nc5)cc4)CC3)cn2)c1=O [102(−), 4-(5-(4-(4-(6-((R)-1,1-difluoro-2-(2-fluorophenyl)-2-hydroxy-3-(1H-tetrazol-1-yl)propyl)pyridin-3-yl)phenyl)piperazin-1-yl)pyridin-2-yl)-2-((2S,3S)-2-hydroxypentan-3-yl)-2,4-dihydro-3H-1,2,4-triazol-3-one] | 0.10 to 1.0 | >8 | – | –
14 | CC[C@@H]([C@H](C)O)n1ncn(-c2ccc(N3CCN(c4ccc(-c5ccc(C(F)(F)[C@](O)(Cn6cnnn6)c6ccc(F)cc6)nc5)cc4)CC3)cn2)c1=O [109(+), (+)-4-(5-(4-(4-(6-((R)-1,1-difluoro-2-(4-fluorophenyl)-2-hydroxy-3-(1H-tetrazol-1-yl)propyl)pyridin-3-yl)phenyl)piperazin-1-yl)pyridin-2-yl)-2-((2S,3S)-2-hydroxypentan-3-yl)-2,4-dihydro-3H-1,2,4-triazol-3-one] | ≤0.0078 to 0.010 | 0.25 to 1.0 | – | –
15 | CC[C@@H]([C@H](C)O)n1ncn(-c2ccc(N3CCN(c4ccc(-c5ccc(C(F)(F)[C@](O)(Cn6cnnn6)c6ccc(F)cc6)nc5)cc4)CC3)cn2)c1=O [109(−), (−)-4-(5-(4-(4-(6-((R)-1,1-difluoro-2-(4-fluorophenyl)-2-hydroxy-3-(1H-tetrazol-1-yl)propyl)pyridin-3-yl)phenyl)piperazin-1-yl)pyridin-2-yl)-2-((2S,3S)-2-hydroxypentan-3-yl)-2,4-dihydro-3H-1,2,4-triazol-3-one] | 0.10 to 1.0 | 1.0 to 4.0 | – | –

The remaining lines, values ahead:

Row | Candida albicans MIC [1] [µg/mL] | Aspergillus fumigatus MIC [2] [µg/mL] | MIC [1] [µg/mL] | MIC [2] [µg/mL] | Structure (SMILES)
16 | ≤0.0078 to 0.010 | 0.25 to 1.0 | – | – | OC(c1ccc(N2CCN(c3ccc(-c4ccc(C(F)(F)[C@](O)(Cn5cnnn5)c5ccc(F)cc5F)nc4)cc3)CC2)cn1)C(F)(F)F (single isomer, unassigned) [Example 6-Fr-II]
17 | – | – | 0.01 to 0.1 (≈ 0.0145 to 0.145 µM) | 0.25 to 1 (≈ 0.363 to 1.45 µM) | OC(c1ccc(N2CCN(c3ccc(-c4ccc(C(F)(F)[C@](O)(Cn5cnnn5)c5ccc(F)cc5F)nc4)cc3)CC2)cn1)C(F)(F)F (single isomer, unassigned) [Example 6-Fr-I]
18 | ≤0.0078 to 0.010 | 0.062 to 0.25 | – | – | OC(CC(F)(F)F)c1ccc(N2CCN(c3ccc(-c4ccc(C(F)(F)[C@](O)(Cn5cnnn5)c5ccc(F)cc5F)nc4)cc3)CC2)cn1 (single isomer, unassigned) [Example 13-Fr-I]
19 | ≤0.0078 to 0.010 | 0.25 to 1.0 | – | – | OC(c1cn(-c2ccc(N3CCN(c4ccc(-c5ccc(C(F)(F)C(O)(Cn6cnnn6)c6ccccc6F)nc5)cc4)CC3)cc2)nn1)C(F)(F)F (single isomer, unassigned; (+)) [108(+), (+)-1,1-difluoro-2-(2-fluorophenyl)-3-(1H-tetrazol-1-yl)-1-(5-(4-(4-(4-(4-(2,2,2-trifluoro-1-hydroxyethyl)-1H-1,2,3-triazol-1-yl)phenyl)piperazin-1-yl)phenyl)pyridin-2-yl) propan-2-ol]
20 | >8 | >8 | – | – | OC(c1cn(-c2ccc(N3CCN(c4ccc(-c5ccc(C(F)(F)C(O)(Cn6cnnn6)c6ccccc6F)nc5)cc4)CC3)cc2)nn1)C(F)(F)F (single isomer, unassigned; (-)) [108(−)]
21 | ≤0.0078 to 0.010 | 0.25 to 1.0 | – | – | OC(c1ccc(N2CCN(c3ccc(-c4ccc(C(F)(F)C(O)(Cn5cnnn5)c5cc(F)ccc5F)nc4)cc3)CC2)cc1)C(F)(F)F (stereo not drawn) [15(+)]
22 | 0.10 to 1.0 | >8 | – | – | OC(c1ccc(N2CCN(c3ccc(-c4ccc(C(F)(F)C(O)(Cn5cnnn5)c5cc(F)ccc5F)nc4)cc3)CC2)cc1)C(F)(F)F (stereo not drawn) [15(−), 2-(2,5-difluorophenyl)-1,1-difluoro-3-(1H-tetrazol-1-yl)-1-(5-(4-(4-(4-(2,2,2-trifluoro-1-hydroxyethyl)phenyl)piperazin-1-yl)phenyl)pyridin-2-yl) propan-2-ol]
23 | – | – | 0.0078 to 0.01 (≈ 0.0127 to 0.0163 µM) | 0.25 to 1 (≈ 0.407 to 1.63 µM) | N#Cc1ccc(N2CCN(c3ccc(-c4ccc(C(F)(F)[C@](O)(Cn5cnnn5)c5ccc(F)cc5F)nc4)cc3)CC2)cc1 [Example 1, (R)-4-(4-(4-(6-(2-(2,4-difluorophenyl)-1,1-difluoro-2-hydroxy-3-(1H-tetrazol-1-yl)propyl)pyridin-3-yl)phenyl)piperazin-1-yl) benzonitrile]
